Results published in patent US20170319562A1, “Compositions and Methods for Extended Therapy with Aminopyridines” (Acorda Therapeutics, Inc., priority 2009, published 2017).

Tests used:
[1] = Single oral dose of 14C-labeled 4-aminopyridine (1 mg/kg) in dogs; type: in vivo; details: dog, plasma, 1 mg/kg oral
Procedure: (§1) Studies were performed in rats and dogs using “C-labeled 4-aminopyridine (1 mg/kg) given as a single oral gavage dose in solution.

[2] = Single oral dose of 14C-labeled 4-aminopyridine (1 mg/kg) in rats; details: for tissue-to-blood ratio: oral dose; for AUC / Cmax / Tmax / half-life: rat, plasma, po, 1 mg/kg
Procedure: as §1
In a single-dose study, rats were administered “C-labeled 4-aminopyridine (1 mg/kg) p.o. Three animals per time point were sacrificed 1, 3, 8, and 24 hours post-dose. Blood was collected and tissues were excised for determination of radioactivity.

Which AUC ([1]; female, females) does the source give for Nc1ccncc1 [^14C-4-Aminopyridine] here?
The AUC was 1920 ± 150 ng·h/mL.

And the Cmax ([1]; female, females)?
Its Cmax is 635 ± 103 ng/g.

What about the Tmax ([1]; female, females) of the same molecule?
The Tmax was 0.8 ± 0.3 h.

What about the half-life ([1]; female, females) of the same molecule?
The half-life was 1.8 ± 0.04 h.

And the AUC ([1]; male, males)?
The AUC was 2030 ± 406 ng·h/mL.

And the Cmax ([1]; male, males)?
The Cmax was 574 ± 123 ng/g.

What about the Tmax ([1]; male, males) of the same molecule?
The Tmax was 1 h.

What about the half-life ([1]; male, males) of the same molecule?
Its half-life is 2.1 ± 0.14 h.

What about the “radioactivity in tissue, percentage of the dose” value ([2]; blood, one hour post-dose) of the same molecule?
Its value is 0.7%.

What about the “radioactivity in tissue, percentage of the dose” value ([2]; carcass, 3 hours post-dose) of the same molecule?
The value was 15.4%.

What about the “radioactivity in tissue, percentage of the dose” value ([2]; carcass, one hour post-dose) of the same molecule?
Its value is 51%.

And the tissue-to-blood ratio ([2]; cerebellum)?
Its tissue-to-blood ratio is 1.48.

What about the tissue-to-blood ratio ([2]; cerebrum) of the same molecule?
Its tissue-to-blood ratio is 3.07.

What about the AUC ([2]; female) of the same molecule?
Its AUC is 506 ± 63.3 ng·h/mL.

And the Cmax ([2]; female)?
Its Cmax is 168 ± 15.7 ng/g.

What about the Tmax ([2]; female) of the same molecule?
Its Tmax is 0.5 h.

And the half-life ([2]; female)?
The half-life was 1.4 ± 0.17 h.

And the “radioactivity in tissue, percentage of the dose” value ([2]; kidney, one hour post-dose)?
Its value is 1.6%.

And the “radioactivity in tissue, percentage of the dose” value ([2]; liver, one hour post-dose)?
Its value is 2.6%.

What about the AUC ([2]; male) of the same molecule?
Its AUC is 498 ± 17.6 ng·h/mL.

What about the Cmax ([2]; male) of the same molecule?
Its Cmax is 189 ± 20.2 ng/g.

And the Tmax ([2]; male)?
Its Tmax is 1 h.

And the half-life ([2]; male)?
The half-life was 1.1 ± 0.04 h.

And the “dose accounted for in total” value ([2]; one hour post-dose)?
Its value is 58.3%.
